{
  "source": "patent US20230263766A1",
  "about": "“CANNABINOID-CONTAINING FORMULATIONS FOR PARKINSONIAN MOVEMENT DISORDERS” (GBS Global BioPharma, Inc., priority 2021, published 2023)",
  "key": {"[1]": {"tested_on": "Cath.a cells", "experiment": "In vitro neuroprotection assay (MPTP/MPP+ cytotoxicity, MTT cell viability)", "type": "cell-based, mouse", "description": "(§1) Cell lines used were from ATCC. Cath.a cells (sp. = mouse, cat# CRL-11179, ATCC, Manassas, Virginia, US), a CNS catecholaminergic cell line, were cultured according to ATCC instructions and were induced to CAD differentiated status by serum deprivation (0.5% FBS culture for 36 h) prior to experiments as described (Qi et al., 1997, Neurosci, 17, 1217-25). PC12 (sp. = rat, ATCC #CRL-1721) were cultured in RPMI 10% FBS. PC12 differentiation used Minimal Essential M medium containing 1% HS and 0.5% FBS, then the cells were treated with 100 ng/ml NGF, 100 ng/ml basic fibroblast growth factor (bFGF), and serum-starved media containing 2 mg/ml BSA for 2 days (Joen et al., 2010. Synapse, 64, pgs 765-72).\nNeuroprotective effects were assessed based on the ability of both individual compounds and mixtures of compounds to protect against neuronal cell death induced by 1-methyl-4-phenylpyridinium (MPP+) in the 1-methyl-4-phenyl-1,2,3,6-tetrahydropyridine (MPTP)-based selective cytotoxicity assay (Arshad et al., 2014, Acta Biochim Biophys Sin (Shanghai), 46, 22-30). MPP+ is an active metabolite of MPTP that is known to cause human Parkinsonism after injection. […] Cell viability was assessed 24 h after exposure to MPP, which is […] after exposure to the tested compound or compound mixture. […]"}, "[2]": {"tested_on": "differentiated PC12 cells", "experiment": "In vitro dopamine-release assay (Dopamine ELISA)", "type": "cell-based, rat", "conditions": "10 µM of each compound; 30 mins; normalized to PMA/Ionomycin control; mean +/- SD", "description": "as §1\nIn parallel with the neuroprotection assays, cannabinoid and terpene compounds were tested alone and in mixtures to determine their effects on dopamine release from differentiated PC12 cells. PC12 cells were differentiated as in (Joen et al., 2010. Synapse, 64, pgs 765-72; Hu et al., 2018, Int J Mol Med, 41, 195-201). Supernatant samples were collected from 3 replicate wells 30 mins after application of PMA/Ionomycin (positive control) or the indicated compounds, and dopamine was measured in the medium using the Dopamine ELISA Kit #KA1887 from Abnova (Abnova, California, US) according to manufacturer’s instructions. […]"}, "[3]": {"tested_on": "zebrafish larvae", "experiment": "Validation of the larval zebrafish OHDA model", "type": "in vivo", "description": "All compounds were diluted in 100% methanol (MeOH) and experiments were performed in a HEPES buffered E3 (HE3) medium (5 mM NaCl, 0.17 mM KCl, 0.33 mM CaCl2-2H2O, 0.33 mM MgSO4-7H2O, 10 mM HEPES, pH 7.2). Individual 120 hours post fertilization (hpf) larval zebrafish were transferred to a 48-well microtiter plate in 500 µL of HE3 media. Larvae were acclimated for at least one hour in a lighted 28.5° C. incubator (photon flux: 3-5 µmol s-1 m2) prior to experimentation and larval behavior was analyzed using DanioVision larval tracking systems with EthoVisionXT14/15 software (Noldus Information Technology Inc., Virginia, USA). Distance traveled was measured using dynamic subtraction at 28.5° C. over 120 minutes with the first 90 minutes under lighted conditions (15 µmol m-2 s-1), followed by alternating 5-minute dark/light cycles. Each larvae represents an independent measurement. […] 12 larvae were used in each experimental condition, and at least 2 replicates of each concentration were performed.\nLarvae were exposed to varying concentrations of 6-hydroxydopamine (OHDA) from 48-120 hours post fertilization (hpf). 15 dechorionated larvae were transferred in 5 mL of HE3 to each well of a six-well plate. The 5 mL exposure media was replaced daily, and ascorbic acid/saline buffer (used to resuspend OHDA) was used as a vehicle control. Larvae were then loaded into 48-well microtiter plate in 500 µL of HE3 media as described above.\nIn addition to distance travelled, activity was measured as a percentage change in pixel density during data acquisition. […] The frequency with which larvae switched between activity states and the cumulative duration of time spent in each activity state was then measured. Metrics were captured in 1 min bins, and the average over 90 minutes was used to calculate each metric in each activity state. For frequency calculations, the number of times larvae switched between activity states (high, moderate, and low) was calculated (termed Total Frequency). The cumulative amount of time spent in the high and moderate activity states combined (termed Cumulative Duration) was averaged over 90 minutes and measured as a percentage."}},
  "data": [
    {"smiles": "CCCCCc1cc(O)c2c(c1)OC(C)(CCC=C(C)C)C=C2", "note": "(centres unmarked) [CBC, Cannabichromene]", "values": [
      {"measurement": "neuroprotective effect of individual compounds", "setting": "[1]; 10 µM, MPTP/MPP+ induced apoptosis", "result": "all of the individual cannabinoids except CBC displayed some neuroprotective effects"}
    ]},
    {"smiles": "C=C(C)[C@@H]1CCC(C)=C[C@H]1c1c(O)cc(CCCCC)cc1O", "note": "[CBD, Cannabidiol]", "values": [
      {"measurement": "effect of adding a major cannabinoid to MIX-1, MIX-2, MIX-3 on cell survival", "setting": "[1]; 10 µM each, equimolar", "result": "increased cell survival in all three mixtures"},
      {"measurement": "DOPA release", "setting": "[2]", "result": "6.0 +/- 0.3%"}
    ]},
    {"smiles": "CCCCCc1cc(O)c2c(c1)OC(C)(C)c1ccc(C)cc1-2", "note": "[CBN, Cannabinol]", "values": [
      {"measurement": "DOPA release", "setting": "[2]", "result": "8.1 +/- 0.4%"}
    ]},
    {"smiles": "NCCc1cc(O)c(O)cc1O", "note": "[OHDA, 6-hydroxydopamine]", "values": [
      {"measurement": "startle response", "setting": "[3]; 150 µM OHDA", "result": "not impacting the startle response"},
      {"measurement": "maximum response to the light/dark transition (startle response)", "setting": "[3]; 225 µM OHDA", "result": "non-significant increase in the maximum response to the light/dark transition"},
      {"measurement": "baseline activity during initial 90-minute period in the light", "setting": "[3]; OHDA exposure 48-120 hpf", "result": "concentration-dependent decrease in the baseline activity"},
      {"measurement": "fraction of time in high activity", "setting": "[3]; OHDA treated larvae", "result": 1, "unit": "%"},
      {"measurement": "fraction of time in moderate activity", "setting": "[3]; OHDA treated larvae", "result": 5, "unit": "%"},
      {"measurement": "fraction of time in the inactive state", "setting": "[3]; OHDA treated larvae", "result": "~ 90%"},
      {"measurement": "reduction in activity state transitions for all three states", "setting": "[3]; OHDA treatment vs untreated", "result": "50-60%"}
    ]}
  ]
}
